# Target: T1, PIP4K2C (Homo sapiens, UniProt Q8TBX8)
# T1 sequence (Q8TBX8 1-421): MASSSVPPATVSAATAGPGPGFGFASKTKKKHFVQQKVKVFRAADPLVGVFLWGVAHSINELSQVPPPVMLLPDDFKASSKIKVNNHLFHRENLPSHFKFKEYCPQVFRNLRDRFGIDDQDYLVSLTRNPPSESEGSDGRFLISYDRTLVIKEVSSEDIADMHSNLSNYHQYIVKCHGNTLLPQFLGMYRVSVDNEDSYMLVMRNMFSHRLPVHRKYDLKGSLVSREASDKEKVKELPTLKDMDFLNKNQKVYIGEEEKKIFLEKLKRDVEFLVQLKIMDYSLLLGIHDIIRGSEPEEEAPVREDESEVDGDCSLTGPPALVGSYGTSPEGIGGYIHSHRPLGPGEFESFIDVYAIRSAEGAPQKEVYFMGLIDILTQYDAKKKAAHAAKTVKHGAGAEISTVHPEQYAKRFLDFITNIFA
# Assay: HiBiT PIP4K2C degradation assay in MOLT-4 cells (endogenous PIP4K2C C-terminally tagged with HiBiT)
# Assay type: cell-based
# Design: untagged in primary human PBMCs and monocyte-derived dendritic cells
# Details: 6 hours of incubation time, rather than 24 hours; MOLT-4, top concentration 10 micromolar; read-out: HiBIT-degradation MOLT4 PIP4k2C DC50 (6 hours, marked *)
# Outline: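 In a CRISPR-engineered MOLT-4 clone carrying HiBiT-tagged PIP4K2C, degradation was assessed after 24 or 6 hours of dosing (10 micromolar top, 3-fold steps). Luminescence from lytic HiBiT detection was fitted to obtain DC50.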
row,DC50 [nM],Compound
1,< 500,"CN(C(=O)[C@H]1CC[C@H](N2CCC(c3ccc(NC4CCC(=O)NC4=O)cc3F)CC2)CC1)[C@H]1CC[C@H](Nc2ncc(F)c(-c3cccc(-n4ccccc4=O)c3)n2)CC1 (stereo partly drawn) [Compound 653, trans-4-(4-(4-((2,6-dioxopiperidin-3-yl)amino)-2-fluorophenyl)piperidin-1-yl)-N-((trans)-4-((5-fluoro-4-(3-(2-oxopyridin-1 (2H)-yl)phenyl)pyrimidin-2-yl)amino)cyclohexyl)-N-methylcyclohexane-1-carboxamide]"
2,< 500,"O=C1CCC(Nc2ccc(C3CCN(C[C@H]4CC[C@H](C(=O)N5CCC(Nc6ncc(F)c(-c7cccc(-c8ccc[nH]c8=O)c7)n6)CC5)CC4)CC3)c(F)c2)C(=O)N1 (stereo partly drawn) [Compound 654, 3-((3-fluoro-4-(1-(((trans)-4-(4-((5-fluoro-4-(3-(2-oxo-1,2-dihydropyridin-3-yl)phenyl)pyrimidin-2-yl)amino)piperidine-1-carbonyl)cyclohexyl)methyl)piperidin-4-yl)phenyl)amino)piperidine-2,6-dione]"
3,< 500,"O=C1CCC(Nc2ccc(N3CCC(N4CCC(C(=O)N[C@H]5CC[C@H](Nc6ncc(F)c(-c7cccc(N8CCOCC8)c7)n6)CC5)CC4)C(F)C3)c(F)c2)C(=O)N1 (some centres unmarked) [Compound 655, 1′-(4-((2,6-dioxopiperidin-3-yl)amino)-2-fluorophenyl)-3′-fluoro-N-((1r,4r)-4-((5-fluoro-4-(3-morpholinophenyl)pyrimidin-2-yl)amino)cyclohexyl)-[1,4′-bipiperidine]-4-carboxamide]"

# Second part, the compound before the results:
row,Compound,DC50 [nM]
1,"O=C1CCC(Nc2ccc(C3CCN(C4CCN(C(=O)O[C@H]5CC[C@H](Nc6ncc(F)c(-c7cccc(-n8ccccc8=O)c7)n6)CC5)CC4(F)F)CC3)c(F)c2)C(=O)N1 (stereo partly drawn) [Compound 648, trans-4-((5-fluoro-4-(3-(2-oxopyridin-1 (2H)-yl)phenyl)pyrimidin-2-yl)amino)cyclohexyl 4-(4-((2,6-dioxopiperidin-3-yl)amino)-2-fluorophenyl)-3′,3′-difluoro-[1,4′-bipiperidine]-1′-carboxylate]",> 5000
2,"O=C1CCC(Nc2ccc(N3CCC(N4CCC(C(=O)N[C@H]5CC[C@H](Nc6ncc(F)c(-c7cccc(-c8ccccc8)c7)n6)CC5)CC4)CC3)c(F)c2)C(=O)N1 (stereo partly drawn) [Compound 649, trans-N-(4-((4-([1,1′-biphenyl]-3-yl)-5-fluoropyrimidin-2-yl)amino)cyclohexyl)-1′-(4-((2,6-dioxopiperidin-3-yl)amino)-2-fluorophenyl)-[1,4′-bipiperidine]-4-carboxamide]",< 500
3,"O=C1CCC(Nc2ccc(N3CCN([C@H]4CC[C@H](CC(=O)N5CCC(Nc6ncc(F)c(-c7cccc(-n8ccccc8=O)c7)n6)CC5)CC4)CC3)c(F)c2)C(=O)N1 (stereo partly drawn) [Compound 650, trans-3-((3-fluoro-4-(4-(4-(2-(4-((5-fluoro-4-(3-(2-oxopyridin-1 (2H)-yl)phenyl)pyrimidin-2-yl)amino)piperidin-1-yl)-2-oxoethyl)cyclohexyl)piperazin-1-yl)phenyl)amino)piperidine-2,6-dione]",> 5000
4,"O=C1CCC(Nc2ccc(C3CCN(C4CCN(C(=O)O[C@H]5CC[C@H](Nc6ncc(F)c(-c7cccc(-c8ccccc8)c7)n6)CC5)CC4)CC3)c(F)c2)C(=O)N1 (stereo partly drawn) [Compound 651, trans-4-((4-([1,1′-biphenyl]-3-yl)-5-fluoropyrimidin-2-yl)amino)cyclohexyl 4-(4-((2,6-dioxopiperidin-3-yl)amino)-2-fluorophenyl)-[1,4′-bipiperidine]-1′-carboxylate]",< 500

# Same assay, conditions: read-out: HiBIT-degradation MOLT4 PIP4k2C DC50 (6 hours, marked *); 6 hours of incubation time, rather than 24 hours; MOLT-4, top concentration 10 micromolar
row,DC50 [nM],Compound
1,< 500,"O=C1CCC(Nc2ccc(N3CCC(N4CC5(CN(C(=O)O[C@H]6CC[C@H](Nc7ncc(F)c(-c8cccc(-n9ccccc9=O)c8)n7)CC6)C5)C4)CC3)c(F)c2)C(=O)N1 (stereo partly drawn) [Compound 652, (trans)-4-((5-fluoro-4-(3-(2-oxopyridin-1 (2H)-yl)phenyl)pyrimidin-2-yl)amino)cyclohexyl 6-(1-(4-((2,6-dioxopiperidin-3-yl)amino)-2-fluorophenyl)piperidin-4-yl)-2,6-diazaspiro[3.3]heptane-2-carboxylate]"

# Source: patent US20260355196A1, “INHIBITORS AND DEGRADERS OF PIP4K PROTEIN” (Larkspur Biosciences, Inc., priority 2023, published 2026)
